Experimental data published in patent publication US8501722B2, “Methods and compositions for treating bacterial infection” (priority 2009, dated 2013).
Values joined by “and” are separate entries in the source; they are usually repeats but may differ in a detail not shown here. Equal entries are not always repeated. Where two headings read alike, the source gives them in different places.

Assays:
[1] = system: SKKanGAS; assay: Growth-based turbidometric screen, SKKanGAS under kanamycin (kanamycin resistance gene under ska promoter); format: cell-based, Group A Streptococcus; conditions: for effect on SKKanGAS and SK-GAS growth: dose response under kanamycin selection, FIG. 11
From the text: A GAS strain was generated to have kanamycin resistance gene under the control of ski promoter to be used to screen for SK inhibitors. A transgenic GAS has been generated in SK(+)GAS host so that kanamycin resistance gene is driven by ska promoter in an extrachromosomal plasmid. The engineered GAS strain (SKKanGAS) was also kanamycin resistant. This kanamycin resistance gene in SK(−)GAS strain is within the omega-Km2 element whose promoter is independent of ska promoter (Khil et al., J. Infect. Dis. 2003; 188:497-505; Ringdahl et al., J. Biol. Chem. 1998; 273:6424-6430). As a result, SK(−)GAS can serve as a control in the screen for SK promoter to weed out compounds that inhibit GAS growth or interfere with kanamycin resistance protein function. […] A cutoff criterion was set to select compounds that can inhibit 50% growth in SKKanGAS while inhibiting less than 10% growth in SK(−)GAS. A total of 95 compounds met this criterion. As a result, these compounds were chosen for dose response assays and pIC50 of growth inhibition of each hit compound was then estimated. […] An example is given as FIG. 10.
Only SKKanGAS is used for screening in the primary screening. Briefly, 30 μl THY medium containing 20 μg/ml kanamycin is first plated into 384-well plates (384 microtiter plate, Corning #3701) and compounds are added into the wells. SKKanGAS strain is grown to OD600 nm=0.8. SKKanGAS is then diluted 12.5 fold into 20 μg/ml kanamycin THY medium. SKKanGAS mixture (10 μl) is added into each well of the 384-well plates. […] The plates are cultured at 37° C. for 16-20 hours. Growth of bacteria in each well is measured by absorbance at 600 nm. Z′>0.5, which is compatible with high throughput screening, has been typically obtained with the 384-well plate format in which 55,000 small compounds have been screened. […] SKKanGAS is a BSL2 level agent and can be stored at −80° C. SKKanGAS can be cultured at 37° C. in THY or Bill medium which is commercially available (Fisher Scientific, Pittsburgh, Pa.).
Once hit compounds have been identified by the primary screening, they are applied to dose response assays with both SKKanGAS and SK(−)GAS stains. SKKanGAS and SK(−)GAS are grown in 20 μg/ml kanamycin with serial dilution of hit compounds (DMSO final concentration=1% in THY medium). Plates are incubated at 37° C. for 15-20 hours in a climate controlled room (humidity 50%). The absorbance is measured at 600 nm. pIC50 of growth inhibition of each hit compound is then determined. Compounds that with at least 10 fold lower IC50 in SKKanGAS than SK(−)GAS strain are identified and subjected to secondary confirmatory assay. As a result, dose response assay identifies and eliminates most nonspecific compounds that may inhibit GAS growth or interfere with kanamycin resistance protein function.

[2] = system: streptokinase (SK)
Experimental: SK− Ecoli and SKCtr1's dose response relationship with these compounds were then examined.
The effects of 10 hit compounds out of the 23 identified were further tested by dose response assays. […] These compounds were tested for inhibition of ska expression by measuring SK activity in supernatants of GAS exposed to the test compound or control vehicle alone (DMSO). SK(+)GAS were cultured with hit compounds at a dose range of 10 nM to 100 μM at 37° C. for 16-20 hours. Supernatants of SK(+)GAS cultures were measured for SK activity using chromogenic substrate 2403 (Diapharma group Inc., West Chester, Ohio), according to the manufacturer's instruction and simultaneously monitored for nonspecific effects on GAS growth by measuring OD600 nm.
The positive compounds identified in dose response assays are subjected to SK assay to identify compounds inhibiting SK expression in SK(+)GAS. Briefly, SK(+)GAS is grown at the presence of hit compounds at a dose range determined by dose response assays within which SK(−) GAS growth is inhibited less than 10% while SKKanGAS growth is inhibited more than 50% under 20 μg/ml kanamycin.

[3] = system: SK(+)GAS; assay: GAS growth by OD600 nm of culture; format: cell-based, Group A Streptococcus; conditions: Streptococcus; for activity at 0.1 µg/mL: read-out: GAS Growth (% control), compound conc. 0.1 μg/ml; for activity at 0.3 µg/mL: read-out: GAS Growth (% control), compound conc. 0.3 μg/ml; for activity at 5 µg/mL: read-out: GAS Growth (% control), compound conc. 5 μg/ml; for activity at 10 µg/mL: read-out: GAS Growth (% control), compound conc. 10 μg/ml; for activity at 20 µg/mL: read-out: GAS Growth (% control), compound conc. 20 μg/ml
[4] = system: SK(+)GAS (UMAA2616); assay: Survival of human plasminogen transgenic (Tg+) mice infected with GAS; format: in vivo; conditions: starting one day after infection; for survival of Tg+ mice compared to DMSO control group: UMAA2616 infection, 575096 5 μg per day, 1S-22207 30 μg per day, intraperitoneally daily for 5 days; for survival rate of Tg+ mice compared to DMSO control group: 6*10^5 CFU SK(+)GAS, 5 μg per mouse intraperitoneally daily for 5 days
Experimental: To examine the in vivo efficacy of compounds CCGC, CCGE, and CCGF, Tg+ mice were first infected with 6*10^5 CFU SK(+)GAS, then injected with 5 μg of test compound per mouse intraperitoneally daily for 5 days, starting one day after infection. […] In some embodiments, small compound are delivered continuously through an ALZET® Osmotic Pump (DURECT Corporation, Cupertino, Calif.).
Tg+ mice are then used to test the efficacy of compounds in attenuating the virulence of GAS infection. 20 Tg+ mice are infected with 10^5 CFU of SK(+)GAS then injected with the estimated experimental doses of the compounds two hours later. Survival is monitored for 9 days, while a control group of Tg+ mice will be infected with SK(+)GAS injected with DMSO. The comparison of mortalities between the two groups is analyzed as described above in the toxicity test. Treating mice with compound post-infection helps avoid potential side-effects of toxic or growth inhibition of compound on SK(+)GAS at the time of infection. As a result, the effect of compound on mice survival is a more authentic reflection of the efficacy of compound on inhibiting GAS virulence. Possible scenarios include:
This example describes the in vivo efficacy of compound 575096. Human plasminogen transgenic mice (Tg+) were first infected with 10^5″^6 CFUUMAA2616, then injected with 5-30 lag of test compound per mouse intraperitoneally daily for 5 days, starting one day after infection.

Compound	SK Expression (% control) ([2]; compound conc. 0.1 μg/ml)	SK Expression (% control) ([2]; compound conc. 0.3 μg/ml)	SK Expression (% control) ([2]; compound conc. 1.0 μg/ml)	SK Expression (% control) ([2]; compound conc. 3 μg/ml)	SK Expression (% control) ([2]; compound conc. 5 μg/ml)	SK Expression (% control) ([2]; compound conc. 40 μg/ml)	activity at 0.1 µg/mL [3] [%]	activity at 0.3 µg/mL [3] [%]	activity at 5 µg/mL [3] [%]	activity at 10 µg/mL [3] [%]	activity at 20 µg/mL [3] [%]	survival of Tg+ mice compared to DMSO control group [4]	effect on SKKanGAS and SK-GAS growth [1]	survival rate of Tg+ mice compared to DMSO control group [4]	further results
CC[C@H]1OC(=O)[C@H](C)[C@@H](O[C@H]2C[C@@](C)(OC)[C@@H](O)[C@H](C)O2)[C@H](C)[C@@H](O[C@@H]2O[C@H](C)C[C@H](N(C)C)[C@H]2O)[C@](C)(O)C[C@@H](C)C(=O)[C@H](C)[C@@H](O)[C@]1(C)O [erythromycin, reference compound]	–	–	–	–	–	–	–	–	–	–	–	–	–	–	SKKanGAS growth susceptibility to known antibiotics ([1]; preliminary screening with 2,000 known compounds (The Spectrum Collection)): susceptible
C=CCn1c(SCCCC)nc2c(c1=O)C1(CCCCC1)Cc1ccccc1-2 [compound 575096]	77 % control and 83 % control and 95 % control	108 % control and 95 % control and 127 % control	65 % control and 69 % control and 84 % control	61 % control and 62 % control and 69 % control	50 % control	68 % control and 51 % control and 69 % control and 76 % control	97	102	101	102	84	significant improvement in survival	–	–	SK Expression (% control) ([2]; compound conc. 50 μg/ml): 65 % control and 66 % control and 83 % control; SK Expression (% control) ([2]; compound conc. 70 μg/ml): 40 % control and 61 % control; activity at 1 µg/mL ([3]; read-out: GAS Growth (% control), compound conc. 1 μg/ml): 102%; activity at 3 µg/mL ([3]; read-out: GAS Growth (% control), compound conc. 3 μg/ml): 100%
C=CCn1c(SCC#N)nc2c(c1=O)C(C)(C)Cc1ccccc1-2 [1S-22207]	103 % control and 108 % control and 97 % control and 95 % control	103 % control and 104 % control and 95 % control and 108 % control	102 % control and 108 % control and 99 % control and 77 % control	62 % control and 46 % control and 83 % control and 47 % control	64 % control and 49 % control and 80 % control	22 % control and 25 % control and 40 % control	96	98	98	96	99	significant improvement in survival	–	–	SK Expression (% control) ([2]; compound conc. 10 μg/ml): 39 % control and 38 % control and 29 % control and 33 % control and 34 % control; SK Expression (% control) ([2]; compound conc. 20 μg/ml): 31 % control and 27 % control; activity at 2.5 µg/mL ([3]; read-out: GAS Growth (% control), compound conc. 2.5 μg/ml): 100%; activity at 40 µg/mL ([3]; read-out: GAS Growth (% control), compound conc. 40 μg/ml): 113%; activity at 70 µg/mL ([3]; read-out: GAS Growth (% control), compound conc. 70 μg/ml): 126%
C=CCn1c(SCCCC)nc2c(c1=O)C1(CCCCC1)Cc1ccccc1-2 [CCGE]	–	–	–	–	–	–	–	–	–	–	–	–	specific inhibition of SKKanGAS growth under kanamycin selection	significant improvement in survival rate	–
COC(=O)c1ccccc1Sc1c(-c2ccccc2)nc2ccccn12 [CCGC]	–	–	–	–	–	–	–	–	–	–	–	–	specific inhibition of SKKanGAS growth under kanamycin selection	No improvement	–
COc1cc(C=CC(=O)c2cc(C)c(C)cc2C)cc(OC)c1OC [CCGF]	–	–	–	–	–	–	–	–	–	–	–	–	specific inhibition of SKKanGAS growth under kanamycin selection	trend toward improvement	–
